Results from patent publication US8314255B2, “Use of phthalimide and/or sulphonamide derivatives in the treatment of diseases which require reducing the TNF- α levels and an exogenous source of nitric oxide, phthalimide derivatives, sulphonamide derivatives, and a method for obtaining a sulphonamide derivative” (priority 2007, dated 2012).
Entries after “also recorded” stand apart in the source; their conditions may differ.

How the values were obtained:
[1] = test system: K562 cells; assay: Cell viability in K562 culture (trypan blue); assay type: cell-based, human
Protocol: (§1) The human leukemia cell line K562 ATCC (American Type Culture Collection), Philadelphia, Pa., USA was used. The cells were cultured in DMEM median (Dulbecco's Modified Eagle Medium, Invitrogen, USA) containing 10% of fetal bovine serum and glutamine. The cells were maintained at 37° C. under a 5% CO2 atmosphere. For the experiments, the cells were incubated at a density of 1×10^5 cells/mL. In order to carry out the culture with hemin (30 uM), it was added 72 hours before the beginning of the experiment with the desired compound.
(§2) The 0-hour time consisted in removing non-treated K562 cells. From this point, the respective compounds were added at the desired concentrations (5, 30, 60 and 100 uM), the cells were then maintained for […] under culture, without a new addition of any compound or substitution of the culture medium. Cell collections were performed at the following times: 0, 24, 48, 72 and 96 hours. The morphology of the cells was analyzed at these points through cytospin slides stained with Leishman and the cell viability was performed by staining with trypan blue in a Neuberger's chamber.

[2] = test system: gamma-globin mRNA; assay: Gamma-globin gene expression in K562 cell culture by Real Time PCR; assay type: cell-based, human; conditions: for gene expression of gamma-globin: K562 erythroleukemic cells, Real Time PCR, 5-100 μM, 24-96 h
Protocol: as §1, §2
The extraction method with TRIzol reagent (Gibco-BRL, Gaithersburg, Md.) according to the manufacturer's instructions was used in order to obtain the RNA from K562. The sample containing K562 and TRIzol was incubated for 5 minutes at room temperature in order to achieve complete dissociation of the nucleoproteic complexes, 200 μL of chloroform (CHCl3) was added and thoroughly stirred, and incubation was again performed by 5 minutes at room temperature. After centrifugation for 15 minutes at 19,000 g at a temperature of 4° C., the supernatant was obtained and stored in another tube, proceeding immediately to the step of precipitation with 500 μL of cold isopropanol. After homogenization, a new incubation was carried out for 10 minutes at room temperature, followed by centrifugation for 10 minutes at 19,000 g at 4° C. The supernatant was disposed of and 800 μL of 70% cold ethanol was added to the precipitate, with a new centrifugation being carried out for 5 minutes at 14,000 at 4° C. […]
The RNA samples obtained were subjected to the complementary DNA (cDNA) synthesis using the Superscript III RTTM kit (Invitrogen, Life Technologies). After reading in a spectrophotometer (Gene Quant-Pharmacia, USA) and quantification, 3 μg of RNA were treated with the enzyme DNase I (Invitrogen, Life Technologies), for removal of contaminant DNA. […]
After reading in a spectrophotometer (Gene Quant-Pharmacia, USA) and quantification, cDNA aliquots were used as template in quantitative real-time PCR reactions. The technique consists in optically monitoring the fluorescence emitted during the PCR reaction, by means of the binding of a specific probe or dye to the newly synthesized strand. […]

Compound | cell viability ([1]; K562 assays with and without hemin, at the concentrations used) | gene expression of gamma-globin in the presence of hemin versus absence of hemin ([2]; K562 cells, hemin 30 uM, compared to the control) | gene expression of gamma-globin [2] | cell viability ([1]; at 0 h, pattern maintained during the assay) [%] | concentration showing activity on gamma-globin expression ([2]; K562 cells, 48 hours) [µM]
O=C1c2ccccc2C(=O)N1c1ccc(CCO[N+](=O)[O-])cc1 [Compound IE, 2-[4-(1,3-dioxo-1,3-dihydro-2H-isoindol-2-yl)phenyl]ethyl nitrate] | higher than 90% | did not show a significantly higher activity | increasing the gene expression of gamma-globin | – | –
Nc1ccc(S(=O)(=O)NO)cc1 [Compound IIA, 4-amino-N-hydroxybenzenesulphonamide] | – | – | higher activity than the control; also recorded: higher than the increase provided by compound IE | 97 | 5
